Key:
PRMT1 [1] = molecular target: T1, PRMT1 (Homo sapiens, UniProt Q99873); experiment: PRMT1 RKO Cellular Target Engagement Assay (In-Cell Western, asymmetric di-methyl arginine); format: cell-based; conditions: RKO cells, 48 hr compound incubation; read-out: RKO IC50 (PRMT-1 Target Engagement)
Description: RKO cells were routinely maintained in EMEM media (ATCC, Catalog #30-2003) supplemented with 10% fetal bovine serum (Sigma, Catalog #F2442) using a humidified incubator (37° C., 5% CO2, and ambient O2).
In preparation for the In-Cell Western assay, cells were harvested and resuspended in EMEM media supplemented with 10% fetal bovine serum. Cells were seeded onto a 384 well, black, clear bottom, Poly-D-Lysine coated tissue culture plate (Greiner, Catalog #781946) at a density of 1,000 cells/well in a volume of 40 μL. The culture plate was incubated for 24 hr at 37° C. with 5% CO2 and ambient O2. Stock solutions of the test compounds were prepared in 100% DMSO (Sigma, Catalog #D2650) and serially diluted 1:3 using 100% DMSO. Compounds were additionally diluted 1:40 in culture medium, and 10 μL/well was transferred to the tissue culture plate. Following the compound addition the microplate was incubated at 37° C. for 48 hr.
The media was removed, the plate was washed with 1× PBS (Fisher Bioreagents, Catalog #BP399-20), and cells were fixed for 10 min using 30 μL/well of 4% paraformaldehyde (Electron Microscopy Sciences, Catalog #15710). The paraformaldehyde was removed, the plate was again washed with 1× PBS, and cells were permeabilized for 15 min using 30 μL/well of 1× PBS containing 0.5% Triton-X 100 (Sigma, Catalog #1001748095). The permeabilization buffer was removed, the plate was washed with 1× PBST (Boston BioProducts, Catalog #IBB-171X), and 50 μL/well of blocking buffer (LI-COR, Catalog #927-40000) was added followed by a 1 hour incubation at room temperature. The blocking buffer was removed, and 20 μL/well of anti-asymmetric di-methyl arginine antibody (Cell Signaling, Catalog #13522S) diluted 1:1000 in LI-COR blocking buffer was added to the plate and incubated overnight, in the dark at 4° C.
The primary antibody was then removed, and the plate was washed three times with 1× PBST. 20 μL/well of CellTag (LI-COR, Catalog #926-41090) and IRDye 800CW goat anti-rabbit IgG antibody (LI-COR, Catalog #926-32211), each diluted 1:500 in LI-COR blocking buffer supplemented with 0.1% Tween-20 (Thermo Scientific, Catalog #85114), were added to the plate. The plate was then incubated in the dark, at room temperature for 1 hour followed by three washes with 1× PBST and one wash with H2O. The IRDye secondary antibody signal (800 channel) and the CellTag signal (700 channel) were measured using a Licor Odyssey Imager, and the 800 channel signal was then normalized to the 700 channel signal. IC50 values were calculated using a four-parameter logistic curve fit using Genedata Screener software.

PATC53 cells = experiment: PATC53 Long Term Phenotypic Assay (14 days, crystal violet viability); format: cell-based; conditions: 336 h
Description: PATC53 cells were derived from the PATC53 PDX model and kindly provided by Jason Fleming (MDACC). The cells were routinely maintained in DMEM/F12 Medium (Corning, Catalog #10-090-CV) supplemented with 10% fetal bovine serum (Sigma, Catalog #F2442), 100 units/mL penicillin and 100 μg/mL streptomycin (Gibco, Catalog #15140-122) in a humidified incubator (37° C., 5% CO2). Prior to the assay, cells were seeded onto a 12-well, TC treated plate (Corning, catalog #353043) at a density of 250 cells per well in a volume of 1 mL. The plate was incubated for 24 hours at 37° C. and 5% CO2. Stock solutions of the test compounds were prepared in 100% DMSO (Sigma, Catalog #D2650) and serially diluted 1:3 using 100% DMSO. Compounds were additionally diluted 1:100 in culture medium, and 110 μL/well was transferred to the tissue culture plate. Following the compound addition, the plate was incubated at 37° C. and 5% CO2 for 14 days. Viability was then assessed by crystal violet staining (Fisher Scientific, Catalog #C58125) as follows: 450 μL of crystal violet (1 mg/mL) was added to the plate for a 10 minute incubation at room temperature. After incubation, the plate was washed 3× with distilled water to remove excess dye and allowed to dry overnight. The crystal violet was solubilized using 10% HOAc (500 μL) for 10 minutes at room temperature, while shaking. A volume of 100 μL was then transferred to a 96-well SpectraPlate (Perkin Elmer, Catalog #6005649). Absorbance at 590 nm was measured with a BioTek Synergy Neo. IC50 values were calculated using a four-parameter logistic curve fit using Genedata Screener software.

DOHH2 cells = experiment: DOHH2 Long Term Phenotypic Assay (7 days, Cell Titer-Glo viability); format: cell-based; conditions: Homo sapiens, DOHH-2, 168 h, Cell Titer-Glo 2.0
Description: DOHH2 cells were kindly provided by Michael Green (MDACC). The cells were routinely maintained in RPMI-1640 Medium (ATCC, Catalog #30-2001) supplemented with 10% fetal bovine serum (Sigma, Catalog #F2442), 100 units/mL penicillin and 100 μg/mL streptomycin (Gibco, Catalog #15140-122) in a humidified incubator (37° C., 5% CO2). Cells were seeded onto a white, CulturPlate-384 (Perkin Elmer, catalog #6007680) at a density of 250 cells per well in a volume of 50 μL. Stock solutions of the test compounds were prepared in 100% DMSO (Sigma, Catalog #D2650) and serially diluted 1:3 using 100% DMSO. Compounds were additionally diluted 1:33 in culture medium, and 10 μL/well was transferred to the tissue culture plate. Following the compound addition, the plate was incubated at 37° C. and 5% CO2 for 7 days. Cells were then mixed and a 30 μL volume was removed. Viability was assessed by a 30 μL addition of Cell Titer-Glo 2.0 (Promega, catalog #G9243). The plate was then shaken on an orbital shaker at 300 RPM for 10 minutes at room temperature, in the dark. Luminescence was measured using a PerkinElmer Envision™ plate reader. IC50 values were calculated using a four-parameter logistic curve fit using Genedata Screener software.

PRMT1 [2] = molecular target: T1, PRMT1; experiment: PRMT1 Enzymatic Assay (LANCE TR-FRET, methylation of histone H4 at Arg3); format: biochemical; parameters: purchased SignalChem P365-380G; conditions: PRMT1 1.5 nM, SAM 1 μM, biotinylated histone H4 (1-21) 25 nM; read-out: PRMT-1 IC50
Description: In order to measure PRMT1 enzymatic activity the LANCE TR-FRET assay from PerkinElmer was used to follow the methylation of histone H4 at Arg3 using S-adenosyl-L-methionine (SAM) as the methyl group donor.
This enzymatic assay was performed in a 384 well, white, low volume plate (PerkinElmer, Catalog 6008289) with assay buffer consisting of 50 mM Hepes (pH 8) (Teknova, Catalog #H1090), 1 mM TCEP (Sigma, Catalog #C4706), and 0.003% Tween-20 (Thermo, Catalog #85114). Stock solutions of the test compounds were prepared in 100% DMSO (Sigma, Catalog #D2650) and serially diluted 1:3 using 100% DMSO. Compounds were additionally diluted 1:40 in assay buffer, and 2 uL/well were transferred to the assay plate. 4 uL/well (final concentration 1.5 nM) of PRMT1 protein (SignalChem, Catalog #P365-380G) diluted in assay buffer was added to the assay plate followed by a 15 min preincubation at room temperature. 4 uL/well of SAM (Sigma, Catalog #A7007) and biotinylated histone H4 (1-21) (AnaSpec, Catalog #62555) (final concentrations 1 μM and 25 nM, respectively) diluted in assay buffer were then added to the assay plate followed by a 1 hour reaction time. Final concentrations of PRMT1, SAM, and histone H4 (1-21) refer to a […].
Detection of methylated histone H4 (H4R^3me) was achieved by combining LANCE Ultra Europium-anti-H4R^3me antibody (PerkinElmer, Catalog #TRF04-14), LANCE Ultra ULight-anti-streptavidin antibody (PerkinElmer, Catalog #TRF0102), and sinefungin (Sigma, Catalog #S8559) (final concentrations 2 nM, 50 nM, and 100 μM respectively) in 1× LANCE detection buffer (PerkinElmer, Catalog #CR97-100) and adding L/well of the detection solution to the assay plate. Detection reagents were allowed to react for 1 hour at room temperature. Final concentrations in the detection solution refer to a L volume. The europium fluorescence signal and the ULight TR-FRET signal were measured using a BioTek Synergy Neo plate reader: excitation at 330 nm, emission at 620 nm and 665 nm respectively, and the ratio of the two signals (665 nm/620 nm) was used for curve fitting. IC50 values were calculated using a four-parameter logistic curve fit using Genedata Screener software.

T1 sequence (Q99873 whole entry): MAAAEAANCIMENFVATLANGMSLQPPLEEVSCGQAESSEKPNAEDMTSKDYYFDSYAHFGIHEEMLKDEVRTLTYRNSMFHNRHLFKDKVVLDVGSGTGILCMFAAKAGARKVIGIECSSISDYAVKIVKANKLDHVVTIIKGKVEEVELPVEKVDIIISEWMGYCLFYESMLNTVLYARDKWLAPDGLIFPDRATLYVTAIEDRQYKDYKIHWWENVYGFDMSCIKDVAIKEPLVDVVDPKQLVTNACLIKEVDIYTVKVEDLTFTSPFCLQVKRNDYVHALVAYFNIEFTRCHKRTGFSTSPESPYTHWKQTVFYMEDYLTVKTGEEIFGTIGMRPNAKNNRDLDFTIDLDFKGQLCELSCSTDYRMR

| SMILES | IC50 (PRMT1 [1]) | IC50 (PATC53 cells) | IC50 (DOHH2 cells) | IC50 (PRMT1 [2]) |
| --- | --- | --- | --- | --- |
| COCC1(COC)CCC(c2c(CN(C)CCN)nn3c2CN(C(=O)C24CC(C2)C4)CC3)CC1 [Example 44, (2-(((2-aminoethyl)(methyl)-amino)methyl)-3-(4,4-bis-(methoxymethyl)cyclohexyl)-6,7-dihydropyrazolo[1,5-a]-pyrazin-5(4H)-yl)(bicyclo-[1.1.1]pentan-1-yl)methanone] | 210 nM | 123 nM | 150 nM | 17 nM |
| CCOCC1(COCC)CCC(c2c(CN(C)CCNC)nn3c2CN(C(=O)CC(F)(F)F)CC3)CC1 [Example 3, 1-(3-(4,4-bis(ethoxymethyl)-cyclohexyl)-2-((methyl(2-(methylamino)ethyl)amino)-methyl)-6,7-dihydropyrazolo-[1,5-a]pyrazin-5(4H)-yl)-3,3,3-trifluoropropan-1-one] | 153 nM | 428 nM | – | 57 nM |
| COCC1(COC)CCC(c2c(CN(C)CCN)nn3c2CN(C(=O)C2COC2)CC3)CC1 [Example 12, (2-(((2-aminoethyl)(methyl)-amino)methyl)-3-(4,4-bis-(methoxymethyl)cyclohexyl)-6,7-dihydropyrazolo[1,5-a]-pyrazin-5(4H)-yl)(oxetan-3-yl)methanone] | – | 3860 nM | – | 23 nM |
| COCC1(COC)CCC(c2c(CN(C)CCN)nn3c2CN(C(=O)CC(F)(F)F)CC3)CC1 [Example 10, 1-(2-(((2-aminoethyl)-(methyl)amino)methyl)-3-(4,4-bis(methoxymethyl)-cyclohexyl)-6,7-dihydro-pyrazolo[1,5-a]pyrazin-5(4H)-yl)-3,3,3-trifluoropropan-1-one] | 695 nM | 649 nM | – | 20 nM |
| CNCCN(C)Cc1nn2c(c1C1CCC(COC)(COC)CC1)CN(C(=O)CC1CCOCC1)CC2 [Example 34, 1-(3-(4,4-bis(methoxy-methyl)cyclohexyl)-2-((methyl(2-(methylamino)-ethyl)amino)methyl)-6,7-dihydropyrazolo[1,5-a]-pyrazin-5(4H)-yl)-2-(tetrahydro-2H-pyran-4-yl)ethan-1-one] | – | 642 nM | 198 nM | 124 nM |
| CNCCN(C)Cc1nn2c(c1C1CCC(COC)(COC)CC1)CN(C(=O)C1COC1)CC2 [Example 9, (3-(4,4-bis(methoxymethyl)-cyclohexyl)-2-((methyl(2-(methylamino)ethyl)amino)-methyl)-6,7-dihydropyrazolo-[1,5-a]pyrazin-5(4H)-yl)-(oxetan-3-yl)methanone] | 1110 nM | 1300 nM | – | 65 nM |
| CNCCN(C)Cc1nn2c(c1C1CCC(COC)(COC)CC1)CN(C(=O)C13CC(C#N)(C1)C3)CC2 [Example 22, 3-(3-(4,4-bis(methoxy-methyl)cyclohexyl)-2-((methyl(2-(methylamino)-ethyl)amino)methyl)-4,5,6,7-tetrahydropyrazolo[1,5-a]-pyrazine-5-carbonyl)bicyclo[1.1.1] pentane-1-carbonitrile] | 1400 nM | 447 nM | – | 72 nM |
| CNCCN(C)Cc1nn2c(c1C1CCC(COC)(COC)CC1)CN(C(=O)C1CCOCC1)CC2 [Example 31, (3-(4,4-bis(methoxymethyl)-cyclohexyl)-2-((methyl(2-(methylamino)ethyl)amino)-methyl)-6,7-dihydropyrazolo-[1,5-a]pyrazin-5(4H)-yl)-(tetrahydro-2H-pyran-4-yl)-methanone] | – | 595 nM | 206 nM | 108 nM |
| CNCCN(C)Cc1nn2c(c1C1CCC(COC)(COC)CC1)CN(C(=O)C1(C)CC1)CC2 [Example 17, (3-(4,4-bis(methoxymethyl)-cyclohexyl)-2-((methyl(2-(methylamino)ethyl)amino)-methyl)-6,7-dihydropyrazolo-[1,5-a]pyrazin-5(4H)-yl)(1-methylcyclopropyl)-methanone] | 370 nM | 133 nM | – | 56 nM |
| CNCCN(C)Cc1nn2c(c1C1CCC(COC)(COC)CC1)CN(C(=O)CC(F)(F)F)CC2 [Example 7, 1-(3-(4,4-bis(methoxy-methyl)cyclohexyl)-2-((methyl(2-(methylamino)-ethyl)amino)methyl)-6,7-dihydropyrazolo[1,5-a]-pyrazin-5(4H)-yl)-3,3,3-trifluoropropan-1-one] | 1620 nM | 210 nM | – | 32 nM |
